Results taken from ChEMBL document CHEMBL1909046, “DrugMatrix in vitro pharmacology data”.

How the values were obtained:
[1] = DRUGMATRIX: Sodium/nucleoside co-transporter radioligand binding (ligand: nitrobenzylthioinosine); assay type: cell membranes, Cavia porcellus, Dunkin-Hartley, Cerebral cortex, Membrane; details: Not Active = under 50% inhibition at 10 µM
[2] = biological target: Beta-1 adrenergic receptor (Homo sapiens, UniProt P08588); assay: DRUGMATRIX: Adrenergic beta1 radioligand binding (ligand: [125I] Cyanopindolol); assay type: cell membranes, CHO-K1, Membrane; details: cho-k1; Not Active = under 50% inhibition at 10 µM
Chain of Beta-1 adrenergic receptor (P08588 whole entry): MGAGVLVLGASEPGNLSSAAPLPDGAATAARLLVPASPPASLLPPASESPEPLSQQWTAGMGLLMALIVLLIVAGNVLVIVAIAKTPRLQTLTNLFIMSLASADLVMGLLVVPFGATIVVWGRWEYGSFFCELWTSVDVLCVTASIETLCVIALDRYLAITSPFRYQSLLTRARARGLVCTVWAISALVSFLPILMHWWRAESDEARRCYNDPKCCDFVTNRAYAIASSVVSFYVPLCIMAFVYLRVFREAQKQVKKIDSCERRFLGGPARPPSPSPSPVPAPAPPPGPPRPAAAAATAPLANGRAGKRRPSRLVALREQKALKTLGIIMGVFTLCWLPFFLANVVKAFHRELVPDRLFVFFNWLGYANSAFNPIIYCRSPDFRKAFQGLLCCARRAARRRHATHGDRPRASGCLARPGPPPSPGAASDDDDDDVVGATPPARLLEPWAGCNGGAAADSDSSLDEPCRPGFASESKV

[3] = DRUGMATRIX: Tumor Necrosis Factor (TNF), Non-Selective radioligand binding (ligand: [125I] TNF-alpha); assay type: cell membranes, Membrane; details: u-937; Not Active = under 50% inhibition at 10 µM
[4] = biological target: C-C chemokine receptor type 2 (Homo sapiens, UniProt P41597); assay type: cell membranes, Membrane; details: cho-k1; further: in other assays of this panel Not Active means under 50% inhibition at 10 µM
Chain of C-C chemokine receptor type 2 (P41597 whole entry): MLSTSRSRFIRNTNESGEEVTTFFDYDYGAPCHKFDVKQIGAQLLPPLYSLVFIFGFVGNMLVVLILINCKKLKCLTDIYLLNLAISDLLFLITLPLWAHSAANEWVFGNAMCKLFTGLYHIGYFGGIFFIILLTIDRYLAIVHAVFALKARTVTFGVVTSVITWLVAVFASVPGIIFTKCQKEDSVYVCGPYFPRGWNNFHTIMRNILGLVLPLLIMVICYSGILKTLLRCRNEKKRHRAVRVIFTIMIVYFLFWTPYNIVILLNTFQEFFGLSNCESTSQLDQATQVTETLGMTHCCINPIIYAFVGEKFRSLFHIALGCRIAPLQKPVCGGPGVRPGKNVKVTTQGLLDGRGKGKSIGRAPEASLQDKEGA

[5] = biological target: C-C chemokine receptor type 5 (Homo sapiens, UniProt P51681); assay type: cell membranes, Membrane; details: hek293; further: in other assays of this panel Not Active means under 50% inhibition at 10 µM
Chain of C-C chemokine receptor type 5 (P51681 whole entry): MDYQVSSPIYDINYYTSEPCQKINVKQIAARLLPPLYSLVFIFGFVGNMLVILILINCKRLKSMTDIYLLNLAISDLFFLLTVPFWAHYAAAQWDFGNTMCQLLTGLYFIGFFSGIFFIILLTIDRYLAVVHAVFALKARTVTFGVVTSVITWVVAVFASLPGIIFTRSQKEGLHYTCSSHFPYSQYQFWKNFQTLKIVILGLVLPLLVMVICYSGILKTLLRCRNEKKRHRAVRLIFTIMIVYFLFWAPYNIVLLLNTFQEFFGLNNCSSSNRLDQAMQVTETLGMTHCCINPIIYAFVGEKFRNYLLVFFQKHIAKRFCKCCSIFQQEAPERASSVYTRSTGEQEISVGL

Leukotriene C4 synthase = biological target: T1, Leukotriene C4 synthase (Cavia porcellus, UniProt A6XA80); assay type: tissue-based, Lung;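 further: enzyme inhibition assay of leukotriene C4 synthase, using LTA4 as the substrate; in other assays of this panel Not Active means under 50% inhibition at 10 µM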
T1 sequence (A6XA80 whole entry): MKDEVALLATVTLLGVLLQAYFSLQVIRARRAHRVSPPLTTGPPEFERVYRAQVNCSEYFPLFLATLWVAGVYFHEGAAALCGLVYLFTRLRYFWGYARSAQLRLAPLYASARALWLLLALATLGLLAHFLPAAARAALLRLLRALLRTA

Nitric oxide synthase 1 = Nitric oxide synthase 1 (Rattus norvegicus, UniProt P29476); assay type: tissue-based, Cerebellum; further: in other assays of this panel Not Active means under 50% inhibition at 10 µM
Chain of Nitric oxide synthase 1 (P29476 whole entry): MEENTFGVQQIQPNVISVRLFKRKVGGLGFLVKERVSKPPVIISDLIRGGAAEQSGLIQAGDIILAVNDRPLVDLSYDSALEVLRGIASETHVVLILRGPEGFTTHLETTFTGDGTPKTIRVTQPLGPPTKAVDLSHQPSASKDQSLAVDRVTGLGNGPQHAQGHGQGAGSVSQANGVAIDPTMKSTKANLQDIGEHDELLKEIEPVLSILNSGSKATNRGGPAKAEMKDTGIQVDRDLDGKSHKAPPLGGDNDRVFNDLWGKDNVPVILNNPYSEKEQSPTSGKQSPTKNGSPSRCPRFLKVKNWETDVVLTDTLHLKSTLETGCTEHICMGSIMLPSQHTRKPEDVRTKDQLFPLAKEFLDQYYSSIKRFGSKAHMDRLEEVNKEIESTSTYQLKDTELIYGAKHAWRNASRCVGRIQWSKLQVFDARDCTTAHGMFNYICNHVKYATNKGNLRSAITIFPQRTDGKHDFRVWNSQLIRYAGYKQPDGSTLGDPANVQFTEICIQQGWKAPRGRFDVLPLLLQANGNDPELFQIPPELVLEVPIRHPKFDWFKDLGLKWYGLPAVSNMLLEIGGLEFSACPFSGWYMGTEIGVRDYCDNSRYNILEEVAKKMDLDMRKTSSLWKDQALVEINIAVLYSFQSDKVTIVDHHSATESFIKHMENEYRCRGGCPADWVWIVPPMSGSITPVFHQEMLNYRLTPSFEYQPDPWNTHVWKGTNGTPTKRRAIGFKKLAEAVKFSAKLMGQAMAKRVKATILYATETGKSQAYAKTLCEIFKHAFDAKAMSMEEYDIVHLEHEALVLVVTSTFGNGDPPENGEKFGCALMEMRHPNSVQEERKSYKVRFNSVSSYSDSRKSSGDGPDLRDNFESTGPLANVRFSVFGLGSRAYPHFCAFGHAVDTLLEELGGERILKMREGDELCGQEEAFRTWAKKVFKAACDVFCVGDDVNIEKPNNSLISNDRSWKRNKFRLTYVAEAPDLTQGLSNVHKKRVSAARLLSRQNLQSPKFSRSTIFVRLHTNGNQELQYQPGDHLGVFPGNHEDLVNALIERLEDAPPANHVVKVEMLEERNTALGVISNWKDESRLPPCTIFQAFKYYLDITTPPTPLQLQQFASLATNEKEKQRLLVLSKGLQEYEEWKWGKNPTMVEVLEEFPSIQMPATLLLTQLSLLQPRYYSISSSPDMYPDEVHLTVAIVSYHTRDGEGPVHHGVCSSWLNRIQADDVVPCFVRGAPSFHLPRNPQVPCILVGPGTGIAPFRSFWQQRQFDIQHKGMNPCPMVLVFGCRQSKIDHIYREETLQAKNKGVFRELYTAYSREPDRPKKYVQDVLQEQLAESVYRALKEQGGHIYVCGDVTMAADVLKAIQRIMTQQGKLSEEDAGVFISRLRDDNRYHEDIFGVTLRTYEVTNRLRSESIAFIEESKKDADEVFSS

[6] = biological target: Delta-type opioid receptor (Homo sapiens, UniProt P41143); assay type: cell membranes, Membrane; details: hek293; further: in other assays of this panel Not Active means under 50% inhibition at 10 µM
Chain of Delta-type opioid receptor (P41143 whole entry): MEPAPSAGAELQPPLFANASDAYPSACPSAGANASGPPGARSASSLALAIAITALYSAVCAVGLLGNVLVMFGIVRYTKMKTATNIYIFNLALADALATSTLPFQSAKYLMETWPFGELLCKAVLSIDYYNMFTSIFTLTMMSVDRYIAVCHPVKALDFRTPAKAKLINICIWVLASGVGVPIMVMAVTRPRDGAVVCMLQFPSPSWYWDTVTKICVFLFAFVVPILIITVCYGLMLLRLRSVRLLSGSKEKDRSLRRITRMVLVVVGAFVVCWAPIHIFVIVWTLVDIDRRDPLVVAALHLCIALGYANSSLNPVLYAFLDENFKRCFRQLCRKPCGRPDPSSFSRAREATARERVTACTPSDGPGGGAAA

[7] = biological target: Platelet-activating factor receptor (Homo sapiens, UniProt P25105); assay type: tissue-based; further: in other assays of this panel Not Active means under 50% inhibition at 10 µM
Chain of Platelet-activating factor receptor (P25105 whole entry): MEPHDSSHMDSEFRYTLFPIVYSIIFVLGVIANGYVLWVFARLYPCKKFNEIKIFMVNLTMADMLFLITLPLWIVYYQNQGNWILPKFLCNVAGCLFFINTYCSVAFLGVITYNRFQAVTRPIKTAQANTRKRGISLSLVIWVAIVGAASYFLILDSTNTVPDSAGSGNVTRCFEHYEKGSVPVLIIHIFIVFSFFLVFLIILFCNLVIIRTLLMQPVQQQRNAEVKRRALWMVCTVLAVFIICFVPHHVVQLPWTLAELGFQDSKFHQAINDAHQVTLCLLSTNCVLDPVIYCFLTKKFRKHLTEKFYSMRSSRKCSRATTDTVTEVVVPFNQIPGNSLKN

O=C(c1ccccc1C(F)(F)F)N1CCC(Cc2ccccc2)CC1
Not Active: IC50 [1] | Ki [1] | IC50 [2] | IC50 [3] | Ki [3] | IC50 [4] | IC50 [5] | IC50 (Leukotriene C4 synthase) | IC50 (Nitric oxide synthase 1) | IC50 [6] | IC50 [7]

O=C/C=C/c1ccccc1
Not Active: IC50 [1] | Ki [1] | IC50 [2] | IC50 [3] | Ki [3] | IC50 [4] | IC50 [5] | IC50 (Leukotriene C4 synthase) | IC50 (Nitric oxide synthase 1) | IC50 [6] | IC50 [7]

Nc1ccc2c3c(cccc13)C(=O)NC2=O
Not Active: IC50 [1] | Ki [1] | IC50 [2] | IC50 [3] | Ki [3] | IC50 [4] | IC50 [5] | IC50 (Leukotriene C4 synthase) | IC50 (Nitric oxide synthase 1) | IC50 [6] | IC50 [7]

COc1ccc(C(=O)N2CCCC2=O)cc1
Not Active: IC50 [1] | Ki [1] | IC50 [2] | IC50 [3] | Ki [3] | IC50 [4] | IC50 [5] | IC50 (Leukotriene C4 synthase) | IC50 (Nitric oxide synthase 1) | IC50 [6] | IC50 [7]

O=c1cnn([C@@H]2O[C@H](CO)[C@@H](O)[C@H]2O)c(=O)[nH]1 [6-AZAURIDINE]
Not Active: IC50 [1] | Ki [1] | IC50 [2] | IC50 [3] | Ki [3] | IC50 [4] | IC50 [5] | IC50 (Leukotriene C4 synthase) | IC50 (Nitric oxide synthase 1) | IC50 [6] | IC50 [7]

CC[C@H](C)[C@H]1O[C@]2(C=C[C@@H]1C)C[C@@H]1C[C@@H](C/C=C(\C)[C@@H](O[C@H]3C[C@H](OC)[C@@H](O[C@H]4C[C@H](OC)[C@@H](O)[C@H](C)O4)[C@H](C)O3)[C@@H](C)/C=C/C=C3\CO[C@@H]4[C@H](O)C(C)=C[C@@H](C(=O)O1)[C@]34O)O2.CO[C@H]1C[C@H](O[C@H]2[C@H](C)O[C@@H](O[C@@H]3/C(C)=C/C[C@@H]4C[C@@H](C[C@]5(C=C[C@H](C)[C@@H](C(C)C)O5)O4)OC(=O)[C@@H]4C=C(C)[C@@H](O)[C@H]5OC/C(=C\C=C\[C@@H]3C)[C@]54O)C[C@@H]2OC)O[C@@H](C)[C@@H]1O [ABAMECTIN]
Not Active: IC50 [1] | Ki [1] | IC50 [2] | IC50 [3] | Ki [3] | IC50 [4] | IC50 [5] | IC50 (Leukotriene C4 synthase) | IC50 (Nitric oxide synthase 1) | IC50 [6] | IC50 [7]

NCCCC(O)(P(=O)(O)O)P(=O)(O)O [ALENDRONIC ACID]
Not Active: IC50 [1] | Ki [1] | IC50 [2] | IC50 [3] | Ki [3] | IC50 [4] | IC50 [5] | IC50 (Leukotriene C4 synthase) | IC50 (Nitric oxide synthase 1) | IC50 [6] | IC50 [7]

Cc1nnc2n1-c1ccc(Cl)cc1C(c1ccccc1)=NC2 [ALPRAZOLAM]
Not Active: IC50 [1] | Ki [1] | IC50 [2] | IC50 [3] | Ki [3] | IC50 [4] | IC50 [5] | IC50 (Leukotriene C4 synthase) | IC50 (Nitric oxide synthase 1) | IC50 [6] | IC50 [7]

Cn1c(=O)c2[nH]cnc2n(C)c1=O.Cn1c(=O)c2[nH]cnc2n(C)c1=O.NCCN [AMINOPHYLLINE]
Not Active: IC50 [1] | Ki [1] | IC50 [2] | IC50 [3] | Ki [3] | IC50 [4] | IC50 [5] | IC50 (Leukotriene C4 synthase) | IC50 (Nitric oxide synthase 1) | IC50 [6] | IC50 [7]

CCC1(CCC(C)C)C(=O)NC(=O)NC1=O [AMOBARBITAL]
Not Active: IC50 [1] | Ki [1] | IC50 [2] | IC50 [3] | Ki [3] | IC50 [4] | IC50 [5] | IC50 (Leukotriene C4 synthase) | IC50 (Nitric oxide synthase 1) | IC50 [6] | IC50 [7]

CC1(C)S[C@@H]2[C@H](NC(=O)[C@H](N)c3ccccc3)C(=O)N2[C@H]1C(=O)O [AMPICILLIN]
Not Active: IC50 [1] | Ki [1] | IC50 [2] | IC50 [3] | Ki [3] | IC50 [4] | IC50 [5] | IC50 (Leukotriene C4 synthase) | IC50 (Nitric oxide synthase 1) | IC50 [6] | IC50 [7]

COc1ccc(C2C(=O)c3ccccc3C2=O)cc1 [ANISINDIONE]
Not Active: IC50 [1] | Ki [1] | IC50 [2] | IC50 [3] | Ki [3] | IC50 [4] | IC50 [5] | IC50 (Leukotriene C4 synthase) | IC50 (Nitric oxide synthase 1) | IC50 [6] | IC50 [7]

O=C1O[C@H]([C@@H](O)CO)C(O)=C1O [ASCORBIC ACID]
Not Active: IC50 [1] | Ki [1] | IC50 [2] | IC50 [3] | Ki [3] | IC50 [4] | IC50 [5] | IC50 (Leukotriene C4 synthase) | IC50 (Nitric oxide synthase 1) | IC50 [6] | IC50 [7]

CN1[C@@H]2CC[C@H]1C[C@@H](OC(=O)C(CO)c1ccccc1)C2 (some centres undefined) [ATROPINE]
Not Active: IC50 [1] | Ki [1] | IC50 [2] | IC50 [3] | Ki [3] | IC50 [4] | IC50 [5] | IC50 (Leukotriene C4 synthase) | IC50 (Nitric oxide synthase 1) | IC50 [6] | IC50 [7]

CC(=O)O[C@H]1C(=O)[C@@]2(C)[C@H]([C@H](OC(=O)c3ccccc3)[C@]3(O)C[C@H](OC(=O)[C@H](O)[C@@H](NC(=O)c4ccccc4)c4ccccc4)C(C)=C1C3(C)C)[C@]1(OC(C)=O)CO[C@@H]1C[C@@H]2O [PACLITAXEL]
Not Active: IC50 [1] | Ki [1] | IC50 [2] | IC50 [3] | Ki [3] | IC50 [4] | IC50 [5] | IC50 (Leukotriene C4 synthase) | IC50 (Nitric oxide synthase 1) | IC50 [7]

CC(C)NCC(O)COc1cccc2[nH]ccc12 (centres undefined) [PINDOLOL]
Not Active: IC50 [1] | Ki [1] | IC50 [3] | Ki [3] | IC50 [4] | IC50 [5] | IC50 (Leukotriene C4 synthase) | IC50 (Nitric oxide synthase 1) | IC50 [6] | IC50 [7]

CCCNCC(O)COc1ccccc1C(=O)CCc1ccccc1 (centres undefined) [PROPAFENONE]
Not Active: IC50 [1] | Ki [1] | IC50 [3] | Ki [3] | IC50 [4] | IC50 [5] | IC50 (Leukotriene C4 synthase) | IC50 (Nitric oxide synthase 1) | IC50 [6] | IC50 [7]
